Results from PubChem BioAssay (NCI).
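48-hour exposure; five concentrations; linearly interpolated endpoints. Here, GI50 denotes the concentration required for 50% inhibition of growth. At the TGI there is no net growth.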

Key:
Assay in all cases: DTP human tumour cell line panel, 48 h
MALME-3M melanoma = test system: MALME-3M melanoma
COLO 205 colon = test system: COLO 205 colon
SK-MEL-28 melanoma = test system: SK-MEL-28 melanoma
OVCAR-8 ovarian = test system: OVCAR-8 ovarian
ACHN renal = test system: ACHN renal
NCI-H522 lung = test system: NCI-H522 lung
HL-60(TB) leukemia = test system: HL-60(TB) leukemia
HCT-116 colon = test system: HCT-116 colon
NCI-H23 lung = test system: NCI-H23 lung
A498 renal = test system: A498 renal

SMILES | GI50 (MALME-3M melanoma) [nM] | TGI (MALME-3M melanoma) [µM] | GI50 (COLO 205 colon) [nM] | TGI (COLO 205 colon) [µM] | GI50 (SK-MEL-28 melanoma) [nM] | TGI (SK-MEL-28 melanoma) [µM] | GI50 (OVCAR-8 ovarian) [nM] | TGI (OVCAR-8 ovarian) [µM] | GI50 (ACHN renal) [µM] | TGI (ACHN renal) [µM] | GI50 (NCI-H522 lung) [nM] | TGI (NCI-H522 lung) [µM] | GI50 (HL-60(TB) leukemia) [nM] | TGI (HL-60(TB) leukemia) [µM] | GI50 (HCT-116 colon) [nM] | TGI (HCT-116 colon) [µM] | GI50 (NCI-H23 lung) [nM] | TGI (NCI-H23 lung) [µM] | TGI (A498 renal) [µM] | GI50 (A498 renal) [nM]
CC1(C)OC(=O)C=C([O-])O1.CC1(C)OC(=O)C=C([O-])O1.CC[O-].CC[O-].[Ti+4] | > 100000 | > 100 | > 100000 | > 100 | > 100000 | > 100 | > 100000 | > 100 | > 100 | > 100 | > 100000 | > 100 | > 100000 | > 100 | > 100000 | > 100 | > 100000 | > 100 |  | 
CN(C)C(=S)/N=c1\ss/c(=N\S(=O)(=O)c2ccccc2)n1N(C)C |  | > 100 |  | > 100 |  | > 100 |  | > 100 |  | > 100 |  | 37.8 |  | > 100 |  | > 100 |  |  | > 100 | 
CCc1nc(N)nc(N)c1-c1ccc(Cl)c(N=CN(C)C)c1 |  |  |  | > 100 |  | > 100 |  | > 100 |  | > 100 |  | 62.7 |  | > 90.3 |  | > 100 |  | > 81.5 | > 100 | 
O=C(O)CCSC(=O)Nc1ccc(N=Nc2ccccc2)cc1 |  | > 100 |  | > 100 |  | > 100 |  | > 100 |  | > 100 |  |  |  | > 100 |  | > 100 |  | > 100 | > 100 | 
COc1ccc2c(c1OC)C(=O)c1cnccc1C2=O |  | > 100 |  | > 100 |  | > 100 |  | > 100 |  | > 100 |  | > 100 |  | > 100 |  | > 100 |  | > 100 |  | 
CCCNc1nc2ccccc2c2c1S(=O)(=O)c1ccc(Cl)cc1C2=O | 1460 | > 50 | 2100 | > 50 | 1610 | > 50 | 1580 | > 50 |  |  | 1170 | > 50 | 1490 | > 50 | 425 | > 50 | 1660 | > 50 | 16.8 | 1510
c1ccc(CNc2nc(Nc3ccccc3)nc3ccccc23)cc1 | 1700 | 3.38 | 1890 | 3.77 | 1700 | 3.24 | 1990 | 5.09 | 1.87 | 4.16 | 1450 | 3.23 |  |  | 1710 | 3.3 | 2170 | 9.25 | 5.7 | 1290
CN1CC(=O)N(C)c2nc[nH]c2C1=O |  | > 100 |  | > 100 |  | > 100 |  | > 100 |  | > 100 |  |  |  | > 100 |  |  |  | > 100 | > 100 | 
O=C1C=CC(O)C2C1CC13SSC4(CC5C(=O)C=CC(O)C5N4C1=O)C(=O)N23 (configuration not stated) |  | 1.22 |  | 1.04 |  | 1.91 |  | 0.271 |  | 0.835 |  | 0.544 |  |  |  |  |  | 0.393 | 6.26 | 
C=CCCCc1ccc(C(O)CCCCCCCCCCCC)o1 (configuration not stated) | 26000 | 72.1 | 19600 | 38.6 | 20600 | 50.6 | 20600 | 44.9 | 16.8 | 30.4 | 15300 | 29.7 |  |  | 15500 | 28.9 | 22300 | 52.5 |  | 
